From article PMC10049026, “In Silico Binding of 2-Aminocyclobutanones to SARS-CoV-2 Nsp13 Helicase and Demonstration of Antiviral Activity” (International Journal of Molecular Sciences, 2023)
Where two headings read alike, the source gives them in different places.

Experiments:
[1] = system: Delta Variant hCoV-19/USA/MD-HP05285/2021 (Lineage B.1.617.2); assay: microbe, parasite or virus in culture; format: cell-based, SARS-CoV-2; details: for IC50: Severe acute respiratory syndrome coronavirus 2
[2] = system: Omicron Variant hCoV-19/USA/MD-HP20874/2021 (Lineage B.1.1.529); assay: microbe, parasite or virus in culture; format: cell-based, SARS-CoV-2; details: Severe acute respiratory syndrome coronavirus 2

Cc1ccc(S(=O)(=O)N[C@@H](Cc2c[nH]c3ccccc23)C(=O)NC2CCC2=O)cc1 (stereo partly drawn) [Compound 4, (2S)-3-(1H-Indol-3-yl)-2-((4-methylphenyl)sulfonamido)-N-(2-oxocyclobutyl)propanamide]
difference in IC50, variants vs wild-type [1]: 10 to 20 fold | IC50 ([1]; read-out: IC50, Delta VOC (Figure 5)): 943 ± 526 nM | IC50 ([1]; read-out: IC50 Values For inhibition of SARS-CoV-2 Mediated Cell Death, Delta): 220 nM | IC50 ([2]; read-out: IC50, Omicron VOC (Figure 5)): 2590 ± 1280 nM | IC50 ([2]; read-out: IC50 Values For inhibition of SARS-CoV-2 Mediated Cell Death, Omicron): 1580 nM
